Experimental data reported in the NIST ThermoML archive (doi:10.1016/j.jct.2015.08.031).
“And” between values parts separate entries of the source, which are not always exact repeats. Equal values may be shown once.

Assay: molar heat capacity at constant pressure
Settings: 101.33 kPa, Crystal, relaxation calorimetry

O[C@H]1[C@H](O)[C@H](O)OC[C@H]1O [β-D-arabinopyranose]
Settings	molar heat capacity at constant pressure
0.5 K	0.0007532 J/K/mol
1 K	0.00191 J/K/mol
1.5 K	0.0039 J/K/mol
1.93 K	0.00664 J/K/mol
2 K	0.007206 J/K/mol
2.03 K	0.00744 J/K/mol
2.14 K	0.00853 J/K/mol
2.26 K	0.00959 J/K/mol
2.38 K	0.01108 J/K/mol
2.5 K	0.01239 J/K/mol
2.51 K	0.01247 J/K/mol
2.64 K	0.01457 J/K/mol
2.78 K	0.01653 J/K/mol
2.94 K	0.01919 J/K/mol
3 K	0.02013 J/K/mol
3.1 K	0.02195 J/K/mol
3.27 K	0.02605 J/K/mol
3.43 K	0.02956 J/K/mol
3.5 K	0.03122 J/K/mol
3.63 K	0.03481 J/K/mol
3.81 K	0.03999 J/K/mol
4 K	0.04664 J/K/mol
4.03 K	0.04762 J/K/mol
4.23 K	0.05477 J/K/mol
4.47 K	0.06546 J/K/mol
4.5 K	0.06755 J/K/mol
4.7 K	0.07779 J/K/mol
4.96 K	0.09273 J/K/mol
5 K	0.09528 J/K/mol
5.22 K	0.109 J/K/mol
5.5 K	0.1311 J/K/mol and 0.1314 J/K/mol
5.79 K	0.157 J/K/mol
6 K	0.1776 J/K/mol
6.1 K	0.19 J/K/mol
6.42 K	0.2256 J/K/mol
6.5 K	0.2359 J/K/mol
6.77 K	0.2719 J/K/mol
7 K	0.308 J/K/mol
7.12 K	0.328 J/K/mol
7.5 K	0.396 J/K/mol
7.51 K	0.3961 J/K/mol
7.9 K	0.4794 J/K/mol
8 K	0.5015 J/K/mol
8.33 K	0.5808 J/K/mol
8.5 K	0.6256 J/K/mol
8.76 K	0.6949 J/K/mol
9 K	0.7669 J/K/mol
9.24 K	0.8445 J/K/mol
9.5 K	0.9266 J/K/mol
9.72 K	1.004 J/K/mol
10 K	1.105 J/K/mol
10.23 K	1.191 J/K/mol
10.77 K	1.405 J/K/mol
11 K	1.517 J/K/mol
11.32 K	1.667 J/K/mol
11.92 K	1.965 J/K/mol
12 K	2 J/K/mol
12.56 K	2.311 J/K/mol
13 K	2.549 J/K/mol
13.23 K	2.685 J/K/mol
13.94 K	3.128 J/K/mol
14 K	3.158 J/K/mol
14.68 K	3.61 J/K/mol
15 K	3.821 J/K/mol
15.46 K	4.149 J/K/mol
16 K	4.53 J/K/mol
16.31 K	4.747 J/K/mol
17 K	5.279 J/K/mol
17.15 K	5.4 J/K/mol
18 K	6.059 J/K/mol
18.08 K	6.128 J/K/mol
19 K	6.866 J/K/mol
19.05 K	6.89 J/K/mol
20 K	7.693 J/K/mol
20.08 K	7.769 J/K/mol
21.14 K	8.663 J/K/mol
22.3 K	9.532 J/K/mol
23.47 K	10.62 J/K/mol
24.74 K	11.68 J/K/mol
25 K	11.98 J/K/mol
26.04 K	12.89 J/K/mol
27.46 K	14.03 J/K/mol
28.89 K	15.45 J/K/mol
30 K	16.33 J/K/mol
30.43 K	16.8 J/K/mol
32.08 K	18.29 J/K/mol
33.81 K	19.73 J/K/mol
35 K	20.68 J/K/mol
35.6 K	21.31 J/K/mol
37.52 K	22.92 J/K/mol
39.51 K	24.55 J/K/mol
40 K	25.02 J/K/mol
41.64 K	26.31 J/K/mol
43.83 K	28.17 J/K/mol
45 K	29.23 J/K/mol
46.19 K	30 J/K/mol
48.63 K	31.87 J/K/mol
50 K	33.14 J/K/mol
51.26 K	34.52 J/K/mol
53.96 K	35.9 J/K/mol
55 K	36.8 J/K/mol
56.88 K	38.09 J/K/mol
59.89 K	40.36 J/K/mol
60 K	40.35 J/K/mol
63.13 K	42.59 J/K/mol
65 K	43.88 J/K/mol
66.46 K	45.03 J/K/mol
70 K	47.36 J/K/mol
70.07 K	47.59 J/K/mol
73.76 K	50.07 J/K/mol
75 K	50.8 J/K/mol
77.78 K	52.92 J/K/mol
80 K	54.2 J/K/mol
81.9 K	55.02 J/K/mol
85 K	57.56 J/K/mol
86.34 K	58.01 J/K/mol
90 K	60.88 J/K/mol
90.84 K	61.56 J/K/mol
95 K	64.18 J/K/mol
95.82 K	64.72 J/K/mol
100 K	67.44 J/K/mol
100.82 K	67.63 J/K/mol
105.87 K	71.22 J/K/mol
110 K	73.87 J/K/mol
110.95 K	74.61 J/K/mol
116.03 K	77.25 J/K/mol
120 K	80.2 J/K/mol
121.05 K	81.12 J/K/mol
126.07 K	84.2 J/K/mol
130 K	86.45 J/K/mol
131.11 K	87.48 J/K/mol
136.18 K	90.66 J/K/mol
140 K	92.63 J/K/mol
141.2 K	93.47 J/K/mol
146.26 K	96.4 J/K/mol
150 K	98.75 J/K/mol
151.33 K	99.46 J/K/mol
156.34 K	102.71 J/K/mol
160 K	104.83 J/K/mol
161.42 K	105.84 J/K/mol
166.44 K	108.82 J/K/mol
170 K	110.86 J/K/mol
171.52 K	111.71 J/K/mol
176.58 K	114.66 J/K/mol
180 K	116.86 J/K/mol
181.62 K	117.85 J/K/mol
186.66 K	121.01 J/K/mol
190 K	122.82 J/K/mol
191.69 K	123.97 J/K/mol
196.75 K	126.57 J/K/mol
200 K	128.77 J/K/mol
201.79 K	129.39 J/K/mol
206.8 K	132.11 J/K/mol
210 K	134.69 J/K/mol
211.88 K	135.86 J/K/mol
216.86 K	138.45 J/K/mol
220 K	140.59 J/K/mol
221.99 K	141.54 J/K/mol
226.98 K	144.9 J/K/mol
230 K	146.48 J/K/mol
232.03 K	147.66 J/K/mol
237.15 K	150.47 J/K/mol
240 K	152.35 J/K/mol
242.11 K	153.65 J/K/mol
247.24 K	156.9 J/K/mol
250 K	158.21 J/K/mol
252.28 K	159.78 J/K/mol
257.34 K	162.75 J/K/mol
260 K	164.06 J/K/mol
262.36 K	165.45 J/K/mol
267.38 K	168.46 J/K/mol
270 K	169.9 J/K/mol
272.39 K	171.4 J/K/mol
273.15 K	171.74 J/K/mol
277.53 K	174.86 J/K/mol
280 K	175.73 J/K/mol
282.55 K	177.62 J/K/mol
287.61 K	180.21 J/K/mol
290 K	181.55 J/K/mol
292.62 K	182.92 J/K/mol
297.64 K	185.3 J/K/mol
298.15 K	186.29 J/K/mol
300 K	187.36 J/K/mol
302.65 K	188.73 J/K/mol
